In patent US20230085307A1, “PYRIDAZINONE COMPOUND AND HERBICIDE” (NISSAN CHEMICAL CORPORATION, priority 2019, published 2023):

Legend:
Japanese bulrush = assay: Test Example 1: herbicidal activity, application before weed generation under submerged conditions (Table 16, symbol B); type: in vivo, Japanese bulrush (Schoenoplectus juncoides); conditions: for Herbicidal effect on B: Japanese bulrush (grade 0-5): 320 g/ha applied herbicide
Summary of the method: (§1)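 Submerged Wagner pots (alluvial soil, 4 cm water) sown with weed seeds and planted with 2.5-leaf rice seedlings; emulsifiable concentrate diluted in water applied to water surface on sowing day. Held in greenhouse at 25-30 °C; injury scored 0-5 by herbicidal rate after three weeks.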

oval-leafed pondweed [1] = assay: Test Example 1: herbicidal activity, application before weed generation under submerged conditions (Table 16, symbol C); type: in vivo, oval-leafed pondweed (Monochoria vaginalis); conditions: for Herbicidal effect on C: oval-leafed pondweed (grade 0-5): 320 g/ha applied herbicide
Summary of the method: as §1

oval-leafed pondweed [2] = assay: Test Example 2: herbicidal activity, application during weed generation under submerged conditions (Table 17, symbol C); type: in vivo, oval-leafed pondweed (Monochoria vaginalis); conditions: application during weed generation, submerged conditions
Summary of the method: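 Wagner pot, alluvial soil, 4 cm flood; mixed sowing of all species; greenhouse 25° C.–30° C. Emulsifiable formulation, water-diluted to predetermined dose, applied to paddy water at 1–2 leaf stage. Effect rated at 3 wk using the earlier test's scoring criteria.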

rice flat sedge = assay: Test Example 3: herbicidal effect by foliage application, Wagner pot (Table 18, symbol E); type: in vivo, rice flat sedge (Cyperus iria); conditions: for herbicidal effect on E (rice flat sedge), rating 0-5: 320 g/ha
Summary of the method: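 Plants were sown in alluvial soil held under 0.1–0.5 cm standing water and grown 14 days in a greenhouse at 25–30 °C. An emulsifiable formulation, water-diluted to the set dose, was then sprayed onto the foliage, and effects were scored three weeks later using previously defined criteria.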

green foxtail [3] = assay: Test Example 4: herbicidal effect by soil treatment (Table 19, symbol G); type: in vivo, green foxtail (Setaria viridis); conditions: for herbicidal effect rating, G: green foxtail: 320 g/ha
Summary of the method: (§2)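 Herbicidal effect was rated 3 weeks after treatment, using the scoring criteria of an earlier test. The compound, formulated as an emulsion and diluted in water to a set herbicide amount, had been sprayed uniformly on soil over freshly sown seeds. Growth took place in a greenhouse at 25° C. to 30° C.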

barnyard grass [4] = assay: Test Example 4: herbicidal effect by soil treatment (Table 19, symbol H); type: in vivo, barnyard grass (Echinochloa crus-galli); conditions: for herbicidal effect rating, H: barnyard grass: 320 g/ha
Summary of the method: as §2

wild oat [5] = assay: Test Example 4: herbicidal effect by soil treatment (Table 19, symbol I); type: in vivo, wild oat (Avena fatua); conditions: for herbicidal effect rating, I: wild oat: 320 g/ha
Summary of the method: as §2

redroot pigweed = assay: Test Example 4: herbicidal effect by soil treatment (Table 19, symbol N); type: in vivo, redroot pigweed (Amaranthus retroflexus); conditions: for herbicidal effect rating, N: redroot pigweed: 320 g/ha
Summary of the method: as §2

chickweed = assay: Test Example 4: herbicidal effect by soil treatment (Table 19, symbol P); type: in vivo, common chickweed (Stellaria media); conditions: for herbicidal effect rating, P: chickweed: 320 g/ha
Summary of the method: as §2

green foxtail [6] = assay: Test Example 5: herbicidal effect by foliage application, plastic box (Table 20, symbol G); type: in vivo, green foxtail (Setaria viridis); conditions: foliage application; for effect on green foxtail (G): 320 g/ha, 3 weeks after application
Summary of the method: (§3)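 Foliar spray test: emulsion formulation diluted in water to a set application rate, sprayed onto 14-day-old plants raised in diluvial soil at 25° C to 30° C under glass. Both herbicidal effect and crop effect rated visually three weeks later.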

barnyard grass [7] = assay: Test Example 5: herbicidal effect by foliage application, plastic box (Table 20, symbol H); type: in vivo, barnyard grass (Echinochloa crus-galli); conditions: foliage application; for effect on barnyard grass (H): 320 g/ha, 3 weeks after application
Summary of the method: as §3

wild oat [8] = assay: Test Example 5: herbicidal effect by foliage application, plastic box (Table 20, symbol I); type: in vivo, wild oat (Avena fatua); conditions: foliage application; for effect on wild oat (I): 320 g/ha, 3 weeks after application
Summary of the method: as §3

blackgrass = assay: Test Example 5: herbicidal effect by foliage application, plastic box (Table 20, symbol J); type: in vivo, blackgrass (Alopecurus myosuroides); conditions: foliage application; for effect on blackgrass (J): 320 g/ha, 3 weeks after application
Summary of the method: as §3

velvetleaf = assay: Test Example 5: herbicidal effect by foliage application, plastic box (Table 20, symbol M); type: in vivo, velvetleaf (Abutilon theophrasti); conditions: foliage application; for effect on velvetleaf (M): 320 g/ha, 3 weeks after application
Summary of the method: as §3

[9] = amount of applied herbicide 246 g/ha
[10] = 246 g/ha, three weeks after application

Row | Compound | Herbicidal effect on B: Japanese bulrush (grade 0-5) (Japanese bulrush) | Herbicidal effect on C: oval-leafed pondweed (grade 0-5) (oval-leafed pondweed [1]) | herbicidal effect rating, C: oval-leafed pondweed (oval-leafed pondweed [2]; AAH 320 g/ha) | herbicidal effect on E (rice flat sedge), rating 0-5 (rice flat sedge) | effect on green foxtail (G) (green foxtail [6]) | effect on barnyard grass (H) (barnyard grass [7]) | effect on wild oat (I) (wild oat [8]) | effect on blackgrass (J) (blackgrass) | effect on velvetleaf (M) (velvetleaf) | herbicidal effect rating, G: green foxtail (green foxtail [3]) | herbicidal effect rating, H: barnyard grass (barnyard grass [4]) | herbicidal effect rating, I: wild oat (wild oat [5]) | herbicidal effect rating, N: redroot pigweed (redroot pigweed) | herbicidal effect rating, P: chickweed (chickweed) | also measured
1 | COCCOCOc1c(C)nn(C)c(=O)c1-c1c(-c2ccc(OCCSC)cc2)sc2ccccc12 [1-221] | 3 (Herbicidal rate of 40% or more and less than 70%) | 3 (Herbicidal rate of 40% or more and less than 70%) | 3 (Herbicidal rate of 40% or more and less than 70%) | 5 (Herbicidal rate of 90% or more (almost completely withered)) | 5 (Herbicidal rate of 90% or more (almost completely withered)) | 5 (Herbicidal rate of 90% or more (almost completely withered)) | 5 (Herbicidal rate of 90% or more (almost completely withered)) | 5 (Herbicidal rate of 90% or more (almost completely withered)) | 5 (Herbicidal rate of 90% or more (almost completely withered)) |  |  |  |  |  | G: green foxtail, herbicidal effect rating (green foxtail [3]; AAH 320 g/ha): 5 (Herbicidal rate of 90% or more (almost completely withered)); H: barnyard grass, herbicidal effect rating (barnyard grass [4]; AAH 320 g/ha): 3 (Herbicidal rate of 40% or more and less than 70%); I: wild oat, herbicidal effect rating (wild oat [5]; AAH 320 g/ha): 0 (Herbicidal rate of 5% or less (almost no effect)); N: redroot pigweed, herbicidal effect rating (redroot pigweed; AAH 320 g/ha): 5 (Herbicidal rate of 90% or more (almost completely withered)); P: chickweed, herbicidal effect rating (chickweed; AAH 320 g/ha): 4 (Herbicidal rate of 70% or more and less than 90%)
2 | CCCC(=O)Oc1c(C)nn(C)c(=O)c1-c1c(-c2ccccc2OC(F)(F)F)sc2ccc(F)cc12 [2-044] | 0 (Herbicidal rate of 5% or less (almost no effect)) | 0 (Herbicidal rate of 5% or less (almost no effect)) | 3 (Herbicidal rate of 40% or more and less than 70%) | 5 (Herbicidal rate of 90% or more (almost completely withered)) | 5 (Herbicidal rate of 90% or more (almost completely withered)) | 0 (Herbicidal rate of 5% or less (almost no effect)) | 3 (Herbicidal rate of 40% or more and less than 70%) | 0 (Herbicidal rate of 5% or less (almost no effect)) | 5 (Herbicidal rate of 90% or more (almost completely withered)) | 4 (Herbicidal rate of 70% or more and less than 90%) | 3 (Herbicidal rate of 40% or more and less than 70%) | 2 (Herbicidal rate of 20% or more and less than 40%) | 5 (Herbicidal rate of 90% or more (almost completely withered)) | 3 (Herbicidal rate of 40% or more and less than 70%) | 
3 | CCCC(=O)Oc1c(C)nn(C)c(=O)c1-c1c(-c2ccc(OC(C)C)cc2)sc2ccc(F)cc12 [2-035] | 4 (Herbicidal rate of 70% or more and less than 90%) | 4 (Herbicidal rate of 70% or more and less than 90%) | 4 (Herbicidal rate of 70% or more and less than 90%) | 5 (Herbicidal rate of 90% or more (almost completely withered)) | 4 (Herbicidal rate of 70% or more and less than 90%) | 5 (Herbicidal rate of 90% or more (almost completely withered)) | 0 (Herbicidal rate of 5% or less (almost no effect)) | 3 (Herbicidal rate of 40% or more and less than 70%) | 5 (Herbicidal rate of 90% or more (almost completely withered)) | 3 (Herbicidal rate of 40% or more and less than 70%) | 2 (Herbicidal rate of 20% or more and less than 40%) | 0 (Herbicidal rate of 5% or less (almost no effect)) | 5 (Herbicidal rate of 90% or more (almost completely withered)) | 3 (Herbicidal rate of 40% or more and less than 70%) | 
4 | CCCC(=O)Oc1c(C)nn(C)c(=O)c1-c1c(-c2ccc(F)cc2OCC)oc2ccc(C)cc12 [9-010] |  |  |  |  |  |  |  |  |  |  |  |  |  |  | Herbicidal effect, B: Japanese bulrush (Japanese bulrush; [9]): 3 (Herbicidal rate of 40% or more and less than 70%); Herbicidal effect, C: oval-leafed pondweed (oval-leafed pondweed [1]; [9]): 3 (Herbicidal rate of 40% or more and less than 70%); herbicidal effect rating, C: oval-leafed pondweed (oval-leafed pondweed [2]; AAH 246 g/ha): 2 (Herbicidal rate of 20% or more and less than 40%); Herbicidal effect on E (rice flat sedge), foliage application (rice flat sedge; [9]): 4 (Herbicidal rate of 70% or more and less than 90%); G: green foxtail, herbicidal effect grade (green foxtail [3]; [9]): 3 (Herbicidal rate of 40% or more and less than 70%); H: barnyard grass, herbicidal effect grade (barnyard grass [4]; [9]): 0 (Herbicidal rate of 5% or less (almost no effect)); I: wild oat, herbicidal effect grade (wild oat [5]; [9]): 0 (Herbicidal rate of 5% or less (almost no effect)); N: redroot pigweed, herbicidal effect grade (redroot pigweed; [9]): 0 (Herbicidal rate of 5% or less (almost no effect)); P: chickweed, herbicidal effect grade (chickweed; [9]): 0 (Herbicidal rate of 5% or less (almost no effect)); herbicidal effect on green foxtail (G) (green foxtail [6]; [10]): 2 (Herbicidal rate of 20% or more and less than 40%); herbicidal effect on barnyard grass (H) (barnyard grass [7]; [10]): 3 (Herbicidal rate of 40% or more and less than 70%); herbicidal effect on wild oat (I) (wild oat [8]; [10]): 1 (Herbicidal rate of 5% or more and less than 20%); herbicidal effect on blackgrass (J) (blackgrass; [10]): 0 (Herbicidal rate of 5% or less (almost no effect)); herbicidal effect on velvetleaf (M) (velvetleaf; [10]): 4 (Herbicidal rate of 70% or more and less than 90%)
5 | Cc1nn(C)c(=O)c(-c2c(-c3ccccc3OC(F)(F)F)sc3ccc(F)cc23)c1O [2-043] | 2 (Herbicidal rate of 20% or more and less than 40%) | 1 (Herbicidal rate of 5% or more and less than 20%) | 0 (Herbicidal rate of 5% or less (almost no effect)) | 5 (Herbicidal rate of 90% or more (almost completely withered)) | 5 (Herbicidal rate of 90% or more (almost completely withered)) | 4 (Herbicidal rate of 70% or more and less than 90%) | 2 (Herbicidal rate of 20% or more and less than 40%) |  | 5 (Herbicidal rate of 90% or more (almost completely withered)) | 5 (Herbicidal rate of 90% or more (almost completely withered)) | 4 (Herbicidal rate of 70% or more and less than 90%) | 0 (Herbicidal rate of 5% or less (almost no effect)) | 5 (Herbicidal rate of 90% or more (almost completely withered)) | 1 (Herbicidal rate of 5% or more and less than 20%) | 
